“Also recorded” adds a separate entry of the source.
Assays:
[1] = test system: mouse model of schizophrenia; assay: Behavior in the Phenotyper cage; assay type: in vivo, mice; conditions: Study II
[2] = Body weight of mice in the neonatal PCP model
[3] = orally-administered; cited from earlier work
[4] = test system: mouse model of schizophrenia; assay: Prepulse inhibition (PPI) of the startle reflex; conditions: for % inhibition (ability to adjust to sound stimulus, PPI): Study I, age 8 weeks
cannabinoid receptor CB2 = cannabinoid receptor CB2 (Homo sapiens, UniProt P34972); conditions: cited from earlier work
Chain of cannabinoid receptor CB2 (P34972 whole entry): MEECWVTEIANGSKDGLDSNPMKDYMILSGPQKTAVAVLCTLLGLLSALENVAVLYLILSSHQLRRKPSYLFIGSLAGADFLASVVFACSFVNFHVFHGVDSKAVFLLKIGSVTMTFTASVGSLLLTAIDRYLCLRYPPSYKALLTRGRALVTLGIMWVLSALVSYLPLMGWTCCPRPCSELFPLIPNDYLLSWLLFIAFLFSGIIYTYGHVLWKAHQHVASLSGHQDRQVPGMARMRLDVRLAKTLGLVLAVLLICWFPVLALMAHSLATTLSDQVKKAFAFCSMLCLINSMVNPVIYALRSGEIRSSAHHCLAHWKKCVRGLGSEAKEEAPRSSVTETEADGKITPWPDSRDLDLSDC

[5] = test system: mouse model of schizophrenia; assay: Open-field test (ambulation/crossing, rearing, grooming)
[6] = test system: mouse model of schizophrenia; assay: Elevated Plus Maze test; conditions: for time spent in the distal end of the opened arm (anxiety): Study I, age 13 weeks
[7] = in vivo; cited from earlier work
[8] = Study II, PND 68, saline-treated mice
[9] = Study III: male mice, PND 17, PCP 5 mg/kg, 1 h later BCP 10 mg/kg or BCP+AM630 10 mg/kg each, DMSO-based vehicle

beta-caryophyllene [BCP]
time spent in the food zone ([1]; PND 91): did not affect the time spend in the food zone | time spent at the drinking zone ([1]; PND 91, compared with PCP-treated group): appeared to reduce the time spend at the drinking zone | frequency of entries to the wheel ([1]; PND 91, females and males): reversed the effects of PCP on the frequency of entries to the wheel; also recorded: reversed the effects of PCP on frequency of entries to the wheel | time spent in the Hidden Zone ([1]; PND 91, females and males): reversed the effects of PCP on the time spend in the Hidden Zone; also recorded: reversed the effects of PCP on the time spent in the hidden zone | frequency of entries to the hidden zone ([1]; PND 91, males (FIG. 20D)): reversed the effect of PCP in males | frequency of entries to the Wheel Zone ([1]; PND 105): appeared to reduce the effect of PCP on the frequency of entries to the Wheel Zone | frequency of entries to the hidden zone ([1]; PND 105): reversed the effects of PCP on the frequency of entries to the hidden zone; also recorded: reversed the effect of PCP on frequency of entries to hidden zone | time spent at the hidden zone ([1]; PND 105): reversed the effects of PCP on the time spend at the hidden zone; also recorded: reversed the effect of PCP on time spent at the hidden zone | time spent in the wheel ([1]; PND 105): showed a trend to reverse the effect of PCP on the time spend in the wheel | body weight ([2]; Study I, BCP 10 mg/kg in DMSO-based vehicle (FIG. 12C)): completely reversed the effect of PCP on body weight | body weight ([2]; Study I, ethanol-based vehicle, PND 7 / first week of life (FIG. 1B)): reversed the reduction in body weight during the first week of life | body weight ([2]; Study I: PCP 5 mg/kg PND 3-16, BCP 10 mg/kg 1 h after PCP, ethanol-based vehicle, each day of injection PND 3-17 (FIG. 1A)): did not restore the weight completely | body weight ([2]; Study I, PND 17 (FIG. 2C)): no significant difference between groups treated with PCP with or without BCP | body weight ([2]; Study I, PND 17, males (FIG. 3A)): appeared to be more prominent | body weight ([2]; Study I, PND 35-37, females (FIG. 4D)): significantly reversed the effect of PCP on female body weight | body weight ([2]; Study I, PND 35-37, males (FIG. 4A)): no significant difference in male body weight between the groups | body weight ([2]; Study II: BCP 5 mg/kg twice a week on PND 43-61 (FIG. 14A)): did not affect body weight | body weight ([2]; Study II, PND 104): did not increase body weight in females and males, rather reduced body weight of PCP+BCP treated group | oral absorption / systemic availability [3]: absorbed by the digestive tract and becomes systemically available | % inhibition (ability to adjust to sound stimulus, PPI) ([4]; females (FIG. 5D)): No significant difference | % inhibition (ability to adjust to sound stimulus, PPI) ([4]; males (FIG. 5B)): reversed this effect; also recorded: significantly reversed the effect of PCP on the sensorimotor-gate in males | response to startle at the end of the PPI test ([4]; Study II, PND 68 (FIGS. 18A-18C)): did not affect the response to startle at the end of the PPI test | pre-pulse inhibition (% PPI) ([4]; Study II, PND 68, PCP-treated mice (FIG. 16A)): significantly reversed the effect of PCP on pre-pulse inhibition; also recorded: reversed the effect of PCP on PPI | response to pre-pulse tones ([4]; Study II, PND 68, PCP-treated mice (FIGS. 17A-17C)): significantly reversed the effect of PCP on response to pre-pulse tones; also recorded: reversed the effect of PCP on the response to tone | startle response ([4]; Study II, PND 68, females (FIG. 16B)): significantly reversed the effect of PCP on startle response in females | response to the startle stimuli ([4]; Study II, PND 68, males (FIG. 16C)): no difference in the response to the startle stimuli between groups | pre-pulse inhibition (% PPI) [4, 8]: no substantial effect on saline-treated mice | response to pre-pulse tones [4, 8]: no effect on saline-treated mice | response to the startle stimuli (120 dB) ([4]; Study II, PND 106 (FIGS. 25A-25C)): no difference in the response to the startle stimuli (120 dB) between groups | response to tones ([4]; Study II, PND 106 (FIGS. 25D-25F)): reversed the effect of PCP on the response to tones | % pre-pulse inhibition (PPI) ([4]; Study II, PND 106 (FIGS. 25G-25I)): reversed the effect of PCP on the % pre-pulse inhibition; also recorded: reversed the effect of PCP on attention at PND106 | activity at CB2 receptor (cannabinoid receptor CB2): CB2-receptor agonist | ambulation ([5]; Study I, DMSO-based carrier, PND 17, males (FIG. 12A)): completely reversed the effects of PCP | rearing behavior ([5]; Study I, DMSO-based carrier, PND 17, males (FIG. 12B)): completely reversed the effects of PCP | rearing ([5]; Study I, ethanol-based vehicle, PND 17 (FIG. 2B)): reversed the effects of PCP on rearing and exploration | ambulation (exploration) ([5]; Study I: PCP 5 mg/kg, BCP 10 mg/kg, ethanol-based vehicle, PND 17 (FIG. 2A)): reversed the effects of PCP on rearing and exploration | ambulation ([5]; Study I, PND 17, females): reversed a proportion of the effects of PCP on ambulation and rearing behavior of female mice | rearing behavior ([5]; Study I, PND 17, females): reversed a proportion of the effects of PCP on ambulation and rearing behavior of female mice | locomotor activity ([5]; Study I, PND 17, males): appeared to be less sensitive to the treatment of PCP or PCP+BCP | rearing and exploration behaviors ([5]; Study I, PND 35-37, females (FIGS. 4E, 4F)): no differences in rearing and exploration behaviors were seen between the different groups | rearing behavior ([5]; Study I, PND 35-37, males (FIG. 4B)): significantly reduced rearing behavior as compared to vehicle and PCP-treated groups | locomotor activity ([5]; Study I, PND 35-37, males (FIG. 4C)): reduced locomotor activity; also recorded: significantly reversed the effect of PCP in males | exploration ([5]; Study II: BCP in adolescence compared with saline-treated mice, PND 63): significantly inhibited the exploration of mice compared with saline-treated mice | ambulation ([5]; Study II: neonatal PCP, BCP 5 mg/kg PND 43-61, PND 63, male and female): significantly reversed the effect of PCP on ambulation in male and female mice | rearing ([5]; Study II, PND 63, females and males (FIGS. 15A-15C)): reversed the effect of PCP on rearing in both females and males | exploratory behavior ([5]; Study II, PND 104, females (last BCP treatment PND 61)): a relapse in exploratory behavior was evident | self-grooming (total, without stimuli) ([5]; Study II, PND 104, females or males): did not reverse the effect of PCP on self-grooming; also recorded: did not reverse the effect of PCT on grooming | exploration ([5]; Study II, PND 104, males): improved exploration and rearing behaviors of male PCP treated mice | rearing behavior ([5]; Study II, PND 104, males): still significantly higher than that of PCP-treated mice with no BCP treatment; also recorded: improved exploration and rearing behaviors of male PCP treated mice | ambulation [5, 9]: reversed the effects of PCP on rearing and exploration | rearing [5, 9]: reversed the effects of PCP on rearing and exploration | time spent in the distal end of the opened arm (anxiety) ([6]; females (FIGS. 6E, 6G)): reversed this effect; also recorded: reversed both effects | time spent in the distal end of the opened arm (anxiety) ([6]; males (FIGS. 6F, 6H)): reversed this effect; also recorded: reversed both effects | behavior in the Plus Maze test ([6]; Study II, PND 64 (FIGS. 19A-19F)): did not reverse the effects of PCP on behavior in the Plus Maze test | toxicity [7]: apparent substantial non-toxicity
